Reference: patent US4879384A, “Preparation of thiocycloalkno [3,2-b] pyridines” (Ortho Pharmaceutical Corporation, priority 1988, dated 1989)
Read-outs that look alike come from different tables or passages of the source.

Columns and labels:
calcium channels = target: T1, calcium channels (Oryctolagus cuniculus, UniProt P15381); experiment: Inhibition of nitrendipine binding to calcium channels; assay type: New Zealand white rabbit (heart membranes); conditions: for IC50: Table II
T1 construct: from tissue; host or cells: rabbit heart membranes (female New Zealand white rabbits; 42,000 xg pellet)
Method: (1) Inhibition of nitrendipine binding to calcium channels.
The assay for inhibition of nitrendipine binding follows the following procedure:
Female, New Zealand white rabbits (1-2 kg) are sacrificed by cervical dislocation, and the heart is immediately removed, cleaned, and chopped into small pieces. The tissue is homogenized in 5X volume of 0.05M Hepes buffer, pH 7.4. The homogenate is centrifuged at 4000 xg for 10 minutes; the supernatant is recentrifuged at 42,000 xg for 90 minutes. The resulting membrane pellet is resuspended (0.7 ml/g weight) in 0.05M Hepes, pH 7.4 and stored at -70° C. until used. Each tube of the binding assay contains ^3 H-nitrendipine (0.05-0.50nM), buffer, membranes (0.10 ml), and test compound in a total volume of 1.0 ml. After 90 minutes at 4° C., the bound nitrendipine is separated from the unbound by filtration on Whatman GF/C fibers. After rinsing, the filters are dried and counted in a liquid scintillation counter.
Non-specific binding of ^3 H-nitrendipine (that amount bound in the presence of excess unlabelled nitrendipine) is subtracted from the total bound to obtain specifically bound radiolabeled nitrendipine. The amount of specifically bound nitrendipine in the presence of a test compound is compared to that amount bound in the absence of a compound. A percent displacement (or inhibition) can then be obtained.

Trachea Muscle = experiment: Inhibition of calcium dependent smooth muscle contraction (trachea); assay type: cell-based, dog; conditions: Table II; concentration 0.3 μM
Method: The test for inhibition of calcium dependent smooth muscle contraction is determined according to the following procedure:
Trachea from dogs sacrificed by excess KCl injection are stored overnight at 4° C. in oxygenated Krebs-Henseleit buffer. Tracheal rings, one cartilage segment wide (5-10 mm), are cut starting from the bronchial end. After cutting the cartilage, the trachealis muscle tissue is suspended in oxygenated Krebs-Henseleit buffer at 37° C. in a 25 ml tissue bath. After a 60 minutes equilibration period, the tissues are challenged with 10 uM carbachol. After 5 minutes the tissues are rinsed and allowed to rest 50 minutes. The tissues are then challenged with 50 mM KCl and, after 30 minutes, the contractions are quantitated. The tissues are then rinsed and reequilibrated for 50 minutes. Test compounds are then added for 10 minutes, and the tissue is rechallenged with 50 mMKcl. After 30 minutes, the contraction is recorded and used to determine the % inhibition of control.
The percent inhibition of smooth muscle contracting is calculated from response data before and after drug treatment. [formula] A rating is assigned to the compound depending upon the percent inhibition obtained.

T1 sequence (P15381 whole entry, other chains not shown): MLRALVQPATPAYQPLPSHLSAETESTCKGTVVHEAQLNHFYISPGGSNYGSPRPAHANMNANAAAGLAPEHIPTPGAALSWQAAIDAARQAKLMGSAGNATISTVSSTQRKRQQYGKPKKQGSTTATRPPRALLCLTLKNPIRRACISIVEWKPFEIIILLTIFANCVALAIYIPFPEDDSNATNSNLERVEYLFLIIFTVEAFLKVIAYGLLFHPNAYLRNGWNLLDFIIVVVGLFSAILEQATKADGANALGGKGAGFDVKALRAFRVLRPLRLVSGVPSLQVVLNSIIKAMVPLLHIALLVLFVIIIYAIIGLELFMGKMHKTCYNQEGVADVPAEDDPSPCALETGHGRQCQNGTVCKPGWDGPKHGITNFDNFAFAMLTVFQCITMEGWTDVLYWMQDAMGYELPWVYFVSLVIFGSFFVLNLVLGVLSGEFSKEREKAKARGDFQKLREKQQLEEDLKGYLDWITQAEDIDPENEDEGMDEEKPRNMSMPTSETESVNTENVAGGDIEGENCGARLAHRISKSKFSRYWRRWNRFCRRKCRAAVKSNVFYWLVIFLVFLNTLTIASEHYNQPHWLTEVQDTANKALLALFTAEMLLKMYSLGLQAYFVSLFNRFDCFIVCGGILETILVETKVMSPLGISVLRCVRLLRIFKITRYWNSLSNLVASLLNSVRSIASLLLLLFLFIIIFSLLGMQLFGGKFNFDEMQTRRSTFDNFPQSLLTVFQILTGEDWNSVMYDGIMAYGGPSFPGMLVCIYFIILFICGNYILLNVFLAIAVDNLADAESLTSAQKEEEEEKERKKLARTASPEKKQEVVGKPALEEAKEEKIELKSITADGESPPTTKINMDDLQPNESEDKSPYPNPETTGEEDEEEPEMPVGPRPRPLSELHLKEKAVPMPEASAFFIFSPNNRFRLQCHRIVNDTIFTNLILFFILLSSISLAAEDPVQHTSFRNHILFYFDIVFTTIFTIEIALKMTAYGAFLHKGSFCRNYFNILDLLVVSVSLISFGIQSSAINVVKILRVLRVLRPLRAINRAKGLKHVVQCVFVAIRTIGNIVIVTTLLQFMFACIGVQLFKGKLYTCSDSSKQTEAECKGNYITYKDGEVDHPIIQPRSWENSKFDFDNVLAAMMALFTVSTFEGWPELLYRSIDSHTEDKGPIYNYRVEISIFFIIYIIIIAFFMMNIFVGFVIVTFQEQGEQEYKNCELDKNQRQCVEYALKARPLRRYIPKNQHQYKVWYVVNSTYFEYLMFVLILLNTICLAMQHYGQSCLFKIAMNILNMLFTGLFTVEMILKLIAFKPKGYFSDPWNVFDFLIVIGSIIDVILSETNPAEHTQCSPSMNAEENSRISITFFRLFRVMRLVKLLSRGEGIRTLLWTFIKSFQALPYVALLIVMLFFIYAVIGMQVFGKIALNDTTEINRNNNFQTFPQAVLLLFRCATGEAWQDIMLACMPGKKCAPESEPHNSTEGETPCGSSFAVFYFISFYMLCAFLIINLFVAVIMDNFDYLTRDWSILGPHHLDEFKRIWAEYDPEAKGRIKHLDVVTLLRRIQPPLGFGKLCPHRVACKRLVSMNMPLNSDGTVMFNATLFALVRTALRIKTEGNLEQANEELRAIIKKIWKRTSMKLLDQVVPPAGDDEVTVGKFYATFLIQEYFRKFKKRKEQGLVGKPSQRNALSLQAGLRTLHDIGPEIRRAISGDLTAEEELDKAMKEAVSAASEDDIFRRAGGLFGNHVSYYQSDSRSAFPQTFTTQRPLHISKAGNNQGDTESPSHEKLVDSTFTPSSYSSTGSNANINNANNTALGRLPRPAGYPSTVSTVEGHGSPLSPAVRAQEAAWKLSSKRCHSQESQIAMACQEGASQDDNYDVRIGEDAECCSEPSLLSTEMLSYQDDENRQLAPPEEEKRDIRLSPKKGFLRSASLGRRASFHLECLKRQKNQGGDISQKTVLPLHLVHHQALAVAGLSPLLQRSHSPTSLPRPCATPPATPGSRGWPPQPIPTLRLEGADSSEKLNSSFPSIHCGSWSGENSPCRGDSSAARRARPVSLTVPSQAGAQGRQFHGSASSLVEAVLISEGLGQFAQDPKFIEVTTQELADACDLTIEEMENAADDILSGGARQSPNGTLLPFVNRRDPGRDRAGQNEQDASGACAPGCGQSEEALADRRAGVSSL
T1 sequence (P13806 27-960 partner limits assumed, other chains not shown): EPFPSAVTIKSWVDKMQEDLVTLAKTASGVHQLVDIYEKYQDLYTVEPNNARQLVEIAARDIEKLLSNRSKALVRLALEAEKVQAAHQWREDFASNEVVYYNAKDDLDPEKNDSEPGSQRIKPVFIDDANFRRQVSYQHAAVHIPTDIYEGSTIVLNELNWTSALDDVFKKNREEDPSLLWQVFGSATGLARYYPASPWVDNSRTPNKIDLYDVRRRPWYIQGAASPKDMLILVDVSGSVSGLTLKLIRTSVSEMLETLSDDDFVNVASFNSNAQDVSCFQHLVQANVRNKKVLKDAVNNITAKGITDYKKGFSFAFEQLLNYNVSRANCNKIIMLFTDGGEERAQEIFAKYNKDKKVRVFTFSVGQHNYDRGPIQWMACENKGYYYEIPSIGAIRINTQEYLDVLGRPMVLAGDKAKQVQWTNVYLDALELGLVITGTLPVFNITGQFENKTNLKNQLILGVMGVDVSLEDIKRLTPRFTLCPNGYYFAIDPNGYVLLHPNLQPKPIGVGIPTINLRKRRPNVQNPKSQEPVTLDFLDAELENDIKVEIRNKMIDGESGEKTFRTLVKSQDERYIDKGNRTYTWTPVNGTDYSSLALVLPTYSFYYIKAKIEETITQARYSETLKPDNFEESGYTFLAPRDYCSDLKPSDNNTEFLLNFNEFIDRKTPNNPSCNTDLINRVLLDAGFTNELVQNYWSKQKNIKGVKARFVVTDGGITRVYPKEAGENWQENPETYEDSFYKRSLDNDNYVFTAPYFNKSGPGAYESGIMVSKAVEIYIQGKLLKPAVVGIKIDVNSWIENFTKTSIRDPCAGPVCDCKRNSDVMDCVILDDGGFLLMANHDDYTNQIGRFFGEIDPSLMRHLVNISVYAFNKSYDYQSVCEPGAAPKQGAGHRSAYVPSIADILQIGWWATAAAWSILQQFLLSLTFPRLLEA
T1 sequence (P13806 961-1106 partner limits assumed, other chains not shown): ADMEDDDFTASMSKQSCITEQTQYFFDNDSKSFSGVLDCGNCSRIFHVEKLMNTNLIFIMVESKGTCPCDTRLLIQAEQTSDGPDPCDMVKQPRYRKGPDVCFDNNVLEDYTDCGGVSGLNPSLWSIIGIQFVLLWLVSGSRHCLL

CC1=C(C(=O)OCCN(C)Cc2ccccc2)C(c2ccccc2[N+](=O)[O-])C2=C(CCCCCS2(=O)=O)N1 (stereo not shown) [5 2-NO2 C6 H4 CH2 CH2 NCH3 CH2 C6 H5]
IC50 (calcium channels; second part, read-out: Inhibition Nitrendipine binding IC^50): 110 nM

COC(=O)C1=C(C)NC2(O)CCS(=O)(=O)C2C1c1ccccc1[N+](=O)[O-] (stereo not shown) [Methyl 2,3,3a,4,7,7a-hexahydro-3a-hydroxy-5-methyl-7-(2-nitrophenyl)-1,1-dioxo-thieno[3,2-b]pyridine-6-carboxylate]
Inhibition of Nitrendipine binding (percent at stated concentration) (calcium channels; Table I, @ 8.0): 56%

CCOC(=O)C1=C(C)NC2=C(C1c1cccnc1SC)S(=O)(=O)CCCCC2 (stereo not shown) [drawing 8 CH2 CH3]
IC50 (calcium channels; first part, read-out: Inhibition of Nitrendipine binding IC50): 108 nM | Inhibition of Trachea Muscle Contraction, % Inhibition (Trachea Muscle): 79%
